From patent US20130337486A1, “MICROFLUIDIC DEVICE FOR HIGH-[…] GRADIENT AND DOSE RESPONSE STUDIES” (UCSD Tech Transfer Office, priority 2005, published 2013)

Columns and labels:
a-Type Yeast = assay: Phenotypic dose response of single yeast cells to a pheromone gradient in the microfluidic device; assay type: cell-based
Method: (§1) Using a device of the invention such as that shown in FIG. 1, analysis of phenotypic dose response in single cells was performed. Yeast cells were grown in YPD media to mid-log phase, and concentrated 10-fold before loading into syringes. The maximum pheromone concentrations used in the experiments was typically 75-100 nM, with varying minimum and maximum ranges for specific experiments. Pheromone diffusion was estimated by fluorescence imaging of the diffusion of Alexa Fluor dye 555 Hydrozide (Molecular Probes), with the MW of approximately 1150 Da (cf. 1684 Da MW of the a-factor), which was used at the concentration of 5 μM. […]
(§2) Images were acquired using the Nikon Eclipse TE2000-U inverted epi-fluorescence microscope, using 20× (evaluation of the gradient values), and 100× (oil immersion; evaluation of yEGFP fluorescence) objectives. Phase contrast images were taken with automatic exposure control, whereas most fluorescence measurements involved manually specified fixed exposure times. Typical gradient measurements using Alexa Fluor 555 dye were obtained using red filter (G-2 EIC, 540/25 excitation wavelength) at a fixed exposure time of 1 sec, whereas yEGFP-mediated fluorescence was obtained using the green filter (YEL-GFP HQ, 500/20 excitation wavelength) at fixed exposure times of 3 secs. […]

Fus1-yEGFP = Fus1-yEGFP expression in yeast cell clusters exposed to a pheromone gradient; assay type: cell-based
Method: as §1, §2

α-factor
phenotype after pre-incubation in high uniform pheromone concentration (a-Type Yeast; 75 nM uniform pheromone for 4 hrs): shmoo formation by all cells
pheromone concentration range in which percentages of budded (BD), cell cycle arrest (CCA) and SM cells were comparable (a-Type Yeast; pheromone gradients from 0 up to 100 nM in test chambers): 15 to 40 nM
pheromone concentration range with clear bimodal nuclear Fus1-yEGFP response (Fus1-yEGFP; six hours after exposure to 0-75 nM pheromone gradient): 15 to 45 nM
difference in Fus1-yEGFP expression between SM cells and cells of all other phenotypes in the bimodal region (Fus1-yEGFP; six hours, 0-75 nM pheromone gradient, bimodal region): approximately 1.7 fold
